{
  "source": "paper PMC6940912",
  "about": "“Novel Drug-Like Somatostatin Receptor 4 Agonists are Potential Analgesics for Neuropathic Pain” (International Journal of Molecular Sciences, 2019)",
  "key": {"Male NMRI mice": {"tested_on": "Male NMRI mice", "experiment": "RTX-induced acute neurogenic inflammatory thermal allodynia and mechanical hyperalgesia", "format": "in vivo, mouse", "conditions": "oral pretreatment 1 h before intraplantar RTX, printed dose 500 µg/kg", "method": "The investigated compounds (500 µg/kg p.o.) or the vehicle were administered orally 1 h before the induction of the acute neurogenic inflammation by intraplantar RTX (Sigma, St. Louis, MO, USA) injection (20 µL, 0.1 µg/mL) into the right hindpaw. RTX evokes an acute neurogenic inflammatory reaction with the development of a rapid thermal allodynia, mainly due to peripheral sensitization mechanisms, and a later developing mechanical hyperalgesia due also to central sensitization. The nociceptive heat threshold was determined before (control) and 10, 20 and 30 min after RTX administration with an increasing-temperature hot plate (IITC Life Science, Woodland Hills, CA, USA). […] The mechanonociceptive threshold was measured with an electronic von Frey device (dynamic plantar aesthesiometer (DPA), Ugo Basile, Comerio, Italy) prior to RTX injection and 30, 60 and 90 min afterwards. The measurement at 30 min was performed immediately after the last heat threshold measurement. The experiment consisted of two separate series on consecutive days and the number of animals in the control group was six per day. Therefore, the control group contained 12 mice, and six and five mice were used in the C1- and C2-treated groups, respectively.\nIn the sst4 receptor activation assay, all the compounds were dissolved in dimethyl sulfoxide (DMSO) (Szkarabeusz Ltd., Pécs, Hungary). The concentration of the stock solutions was 10 mM and was diluted with distilled water to reach the final concentrations. For the in vivo experiments, 1 mg of the compounds was rubbed dry in a braying mortar, suspended thoroughly in 1 mL 1.25% methylcellulose (MC) (Pharmacy of University of Pécs, Pécs, Hungary) solution and then dissolved in sterile bidistilled water to get a 1000 µg/mL stock solution freshly every experimental day. Most microsuspensions looked opalescent; they were shaken properly, sonicated, and further diluted with 1.25% MC to obtain the 25 µg/mL solution for oral administrations (0.2 mL/10 g body weight for the 500 µg/kg dose). The solutions were shaken and sonicated again directly before use. The vehicle was always 1.25% MC dissolved in sterile bidistilled water.\nMale NMRI mice (8–12 weeks old) bred in the Laboratory Animal House of the Department of Pharmacology and Pharmacotherapy of the University of Pecs were kept in standard plastic cages at 24–25 °C, under a 12–12 h light–dark cycle and provided with standard rodent chow and water ad libitum. […]"}, "COX-2": {"biological_target": "T1, COX-2 (Homo sapiens, UniProt P35354)", "T1 construct": "Eurofins Cerep (contract assay)", "T1 sequence (P35354 18-604)": "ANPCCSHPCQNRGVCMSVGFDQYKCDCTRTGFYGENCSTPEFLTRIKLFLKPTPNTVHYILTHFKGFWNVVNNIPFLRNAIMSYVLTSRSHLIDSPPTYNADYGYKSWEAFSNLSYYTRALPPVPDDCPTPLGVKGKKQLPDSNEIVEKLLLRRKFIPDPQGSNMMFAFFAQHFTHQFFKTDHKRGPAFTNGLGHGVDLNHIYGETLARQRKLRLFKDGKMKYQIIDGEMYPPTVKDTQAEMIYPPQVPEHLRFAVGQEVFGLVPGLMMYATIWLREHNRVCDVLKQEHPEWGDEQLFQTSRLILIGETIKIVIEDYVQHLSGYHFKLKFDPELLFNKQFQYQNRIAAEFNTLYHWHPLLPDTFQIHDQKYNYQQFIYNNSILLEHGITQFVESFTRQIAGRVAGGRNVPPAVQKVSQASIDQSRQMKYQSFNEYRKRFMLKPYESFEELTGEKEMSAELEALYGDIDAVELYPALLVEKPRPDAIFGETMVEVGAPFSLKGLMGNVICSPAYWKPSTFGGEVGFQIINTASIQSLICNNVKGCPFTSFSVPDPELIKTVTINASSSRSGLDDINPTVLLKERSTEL", "experiment": "Selectivity profile (Eurofins Cerep), enzyme inhibition", "format": "biochemical", "conditions": "% inhibition of control enzyme activity, read-out: Enzymatic Activity (%)", "method": "(§1) The evaluation was performed by Eurofins Cerep (France). Compound binding was calculated as a % inhibition of the binding of a radioactively labeled ligand specific for each target. Enzyme inhibition effect was calculated as a % inhibition of control enzyme activity. Cellular agonist effect was calculated as a % of control response to a known reference agonist for each target, and cellular antagonist effect was calculated as a % inhibition of control reference agonist response for each target. In each experiment the respective reference compound was tested concurrently with Compound 1 [71, 72, 73, 74, 75, 76, 77, 78]. See in Supplementary Materials."}, "MAOA": {"biological_target": "T2, MAOA (Homo sapiens, UniProt P21397)", "T2 construct": "Eurofins Cerep (contract assay)", "T2 sequence (P21397 1-527)": "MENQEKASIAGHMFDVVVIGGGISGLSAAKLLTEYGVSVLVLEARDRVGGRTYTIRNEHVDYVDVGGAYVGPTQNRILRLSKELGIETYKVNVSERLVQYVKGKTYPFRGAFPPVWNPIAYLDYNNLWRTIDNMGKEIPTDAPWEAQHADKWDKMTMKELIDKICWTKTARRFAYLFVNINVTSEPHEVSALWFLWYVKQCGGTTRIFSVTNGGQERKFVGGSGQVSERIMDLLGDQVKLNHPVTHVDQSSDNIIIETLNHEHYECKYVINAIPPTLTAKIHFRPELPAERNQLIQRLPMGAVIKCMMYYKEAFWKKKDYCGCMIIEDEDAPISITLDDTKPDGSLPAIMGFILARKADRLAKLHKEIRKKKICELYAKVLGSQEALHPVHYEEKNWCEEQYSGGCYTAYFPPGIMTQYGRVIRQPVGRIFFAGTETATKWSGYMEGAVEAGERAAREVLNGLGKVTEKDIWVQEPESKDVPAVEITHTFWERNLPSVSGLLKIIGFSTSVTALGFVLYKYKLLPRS", "experiment": "Selectivity profile (Eurofins Cerep), enzyme inhibition", "format": "biochemical", "conditions": "% inhibition of control enzyme activity, read-out: Enzymatic Activity (%)", "method": "as §1"}, "PDE3A": {"biological_target": "T3, PDE3A (Homo sapiens, UniProt Q14432)", "T3 construct": "Eurofins Cerep (contract assay)", "T3 sequence (Q14432 whole entry, species assumed)": "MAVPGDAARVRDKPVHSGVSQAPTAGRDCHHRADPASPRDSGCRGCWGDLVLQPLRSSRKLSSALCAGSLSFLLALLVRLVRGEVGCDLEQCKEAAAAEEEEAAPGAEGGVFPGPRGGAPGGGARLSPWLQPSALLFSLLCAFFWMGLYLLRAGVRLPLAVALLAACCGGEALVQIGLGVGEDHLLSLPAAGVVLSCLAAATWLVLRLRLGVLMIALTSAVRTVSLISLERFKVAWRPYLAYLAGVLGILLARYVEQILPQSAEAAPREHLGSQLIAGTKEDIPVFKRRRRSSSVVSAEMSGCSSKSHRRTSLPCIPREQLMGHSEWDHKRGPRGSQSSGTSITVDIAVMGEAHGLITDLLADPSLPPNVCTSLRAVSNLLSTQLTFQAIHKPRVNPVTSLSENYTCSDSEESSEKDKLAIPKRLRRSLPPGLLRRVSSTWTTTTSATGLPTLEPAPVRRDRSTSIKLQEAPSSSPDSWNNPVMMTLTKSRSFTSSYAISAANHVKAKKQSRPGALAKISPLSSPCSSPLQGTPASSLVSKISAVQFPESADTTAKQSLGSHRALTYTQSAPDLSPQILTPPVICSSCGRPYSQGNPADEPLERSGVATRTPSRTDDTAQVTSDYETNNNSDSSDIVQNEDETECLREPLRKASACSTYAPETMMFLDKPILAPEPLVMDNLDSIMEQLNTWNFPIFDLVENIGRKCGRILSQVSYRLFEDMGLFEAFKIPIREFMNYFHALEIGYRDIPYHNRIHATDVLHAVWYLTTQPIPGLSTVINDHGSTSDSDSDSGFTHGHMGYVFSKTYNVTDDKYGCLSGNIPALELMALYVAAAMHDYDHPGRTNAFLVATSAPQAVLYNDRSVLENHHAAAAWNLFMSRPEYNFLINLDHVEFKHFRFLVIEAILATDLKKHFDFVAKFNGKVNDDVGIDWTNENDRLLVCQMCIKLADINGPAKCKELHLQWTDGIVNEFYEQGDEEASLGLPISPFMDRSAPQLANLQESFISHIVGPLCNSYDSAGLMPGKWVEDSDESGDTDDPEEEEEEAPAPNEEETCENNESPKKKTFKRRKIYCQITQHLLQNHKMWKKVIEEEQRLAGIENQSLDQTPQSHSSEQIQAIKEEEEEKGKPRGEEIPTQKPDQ", "experiment": "Selectivity profile (Eurofins Cerep), enzyme inhibition", "format": "biochemical", "conditions": "% inhibition of control enzyme activity, read-out: Enzymatic Activity (%)", "method": "as §1"}, "PDE4D2": {"biological_target": "T4, PDE4D2 (Homo sapiens, UniProt Q08499)", "T4 construct": "Eurofins Cerep (contract assay)", "T4 sequence (Q08499 303-809 limits assumed)": "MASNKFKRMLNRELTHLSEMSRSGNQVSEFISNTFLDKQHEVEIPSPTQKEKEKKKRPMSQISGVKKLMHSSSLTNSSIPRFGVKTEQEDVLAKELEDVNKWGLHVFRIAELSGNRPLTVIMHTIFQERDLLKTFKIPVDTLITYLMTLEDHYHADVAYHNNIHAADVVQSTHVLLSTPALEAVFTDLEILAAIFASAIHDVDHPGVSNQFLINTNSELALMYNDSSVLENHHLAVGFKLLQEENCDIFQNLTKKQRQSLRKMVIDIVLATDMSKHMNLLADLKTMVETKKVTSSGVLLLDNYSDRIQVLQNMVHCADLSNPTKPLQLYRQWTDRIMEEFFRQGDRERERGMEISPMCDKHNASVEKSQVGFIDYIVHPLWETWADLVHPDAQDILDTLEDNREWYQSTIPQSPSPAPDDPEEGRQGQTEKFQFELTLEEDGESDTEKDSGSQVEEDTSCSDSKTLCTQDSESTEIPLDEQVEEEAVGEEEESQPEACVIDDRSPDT", "experiment": "Selectivity profile (Eurofins Cerep), enzyme inhibition", "format": "biochemical", "conditions": "% inhibition of control enzyme activity, read-out: Enzymatic Activity (%)", "method": "as §1"}, "CB2": {"biological_target": "T5, CB2 (Homo sapiens, UniProt P34972)", "T5 construct": "Eurofins Cerep (contract assay)", "T5 sequence (P34972 whole entry)": "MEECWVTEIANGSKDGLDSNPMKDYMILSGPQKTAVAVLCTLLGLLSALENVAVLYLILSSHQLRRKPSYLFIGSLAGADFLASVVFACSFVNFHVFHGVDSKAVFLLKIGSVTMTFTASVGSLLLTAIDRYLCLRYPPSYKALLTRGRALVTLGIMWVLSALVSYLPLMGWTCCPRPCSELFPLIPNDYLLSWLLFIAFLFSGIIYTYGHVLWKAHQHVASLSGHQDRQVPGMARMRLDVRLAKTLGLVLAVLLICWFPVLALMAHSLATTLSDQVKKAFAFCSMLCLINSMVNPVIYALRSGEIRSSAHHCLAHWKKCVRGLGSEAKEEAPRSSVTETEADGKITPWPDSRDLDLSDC", "experiment": "Selectivity profile (Eurofins Cerep), cellular agonist/antagonist effect", "format": "cell-based", "conditions": "1 µM", "method": "as §1"}, "Delta (DOP)": {"biological_target": "T6, Delta (DOP) (Homo sapiens, UniProt P41143)", "T6 construct": "Eurofins Cerep (contract assay)", "T6 sequence (P41143 whole entry)": "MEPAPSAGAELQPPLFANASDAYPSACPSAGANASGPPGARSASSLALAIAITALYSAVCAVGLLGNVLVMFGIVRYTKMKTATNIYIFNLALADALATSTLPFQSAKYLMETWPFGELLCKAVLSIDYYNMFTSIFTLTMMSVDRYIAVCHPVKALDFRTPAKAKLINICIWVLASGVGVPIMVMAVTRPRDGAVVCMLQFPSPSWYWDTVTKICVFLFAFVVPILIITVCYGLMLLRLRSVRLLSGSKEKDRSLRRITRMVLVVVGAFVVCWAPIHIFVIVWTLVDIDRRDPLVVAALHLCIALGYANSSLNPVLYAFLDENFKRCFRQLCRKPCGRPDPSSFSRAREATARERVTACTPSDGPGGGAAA", "experiment": "Selectivity profile (Eurofins Cerep), cellular agonist/antagonist effect", "format": "cell-based", "conditions": "1 µM", "method": "as §1"}, "Kappa (KOP)": {"biological_target": "T7, Kappa (KOP) (Homo sapiens, UniProt P41145)", "T7 construct": "Eurofins Cerep (contract assay)", "T7 sequence (P41145 whole entry)": "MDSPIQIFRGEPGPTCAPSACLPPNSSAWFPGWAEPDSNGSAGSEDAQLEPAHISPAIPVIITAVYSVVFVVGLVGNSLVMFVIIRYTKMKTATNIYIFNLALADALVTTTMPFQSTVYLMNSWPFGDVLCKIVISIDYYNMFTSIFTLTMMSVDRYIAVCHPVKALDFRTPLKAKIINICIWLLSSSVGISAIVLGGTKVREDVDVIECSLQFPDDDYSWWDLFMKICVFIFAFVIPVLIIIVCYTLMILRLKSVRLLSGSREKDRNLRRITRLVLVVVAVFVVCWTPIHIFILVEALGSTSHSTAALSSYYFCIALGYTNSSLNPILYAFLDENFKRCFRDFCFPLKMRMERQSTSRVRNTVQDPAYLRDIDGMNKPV", "experiment": "Selectivity profile (Eurofins Cerep), cellular agonist/antagonist effect", "format": "cell-based", "conditions": "1 µM", "method": "as §1"}, "[1]": {"conditions": "% inhibition of control reference agonist response"}, "[2]": {"conditions": "% of control response to reference agonist"}},
  "data": [
    {"smiles": "c1ccc(CCNc2ncnc3c2ccn3Cc2ccccc2)cc1", "note": "[Compound 1, (7-Benzyl-7H-pyrrolo[2,3-d]pyrimidin-4-yl)-phenethyl-amine]", "values": [
      {"measurement": "Effect on acute neurogenic inflammatory heat hyperalgesia", "setting": "Male NMRI mice; at 10 and 30 min", "result": "significantly decreased"},
      {"measurement": "Effect on RTX-induced mechanical hyperalgesia", "setting": "Male NMRI mice; at 30 min", "result": "significantly decreased"},
      {"measurement": "inhibition at 1 µM", "setting": "COX-2", "result": -10.4, "unit": "%"},
      {"measurement": "inhibition at 1 µM", "setting": "MAOA", "result": 2.7, "unit": "%"},
      {"measurement": "inhibition at 1 µM", "setting": "PDE3A", "result": -15, "unit": "%"},
      {"measurement": "inhibition at 1 µM", "setting": "PDE4D2", "result": -0.6, "unit": "%"},
      {"measurement": "Antagonist Effect (%)", "setting": "CB2; [1]", "result": 7.7, "unit": "%"},
      {"measurement": "Agonist Effect (%)", "setting": "CB2; [2]", "result": 58.9, "unit": "%"},
      {"measurement": "Antagonist Effect (%)", "setting": "Delta (DOP); [1]", "result": "−1.4", "unit": "%"},
      {"measurement": "Agonist Effect (%)", "setting": "Delta (DOP); [2]", "result": "−0.3", "unit": "%"},
      {"measurement": "Antagonist Effect (%)", "setting": "Kappa (KOP); [1]", "result": 23.6, "unit": "%"},
      {"measurement": "Agonist Effect (%)", "setting": "Kappa (KOP); [2]", "result": "−1.5", "unit": "%"}
    ]}
  ]
}
